The test system of series [1] is WI-L2 human B-lymphocyte line. In words: LDH release cytotoxicity assay, WI-L2. The class given is cell-based. As to conditions: Homo sapiens; WIL2; LDH release, 0-100 μM, 18 h. The protocol: (§1) Cytotoxicity assays. WI-L2 human B-lymphocyte line, HAAE-1 human abdominal aortic endothelial line, MH-S murine alveolar macrophage line, and J774A.1 murine tissue macrophage line were obtained from the ATCC. Human aortic endothelial cells (HAEC) and human vascular smooth muscle cells (VSMS) were obtained from Cambrex Bio Science. Jurkat E6-1T-lymphocytes were kindly provided by Dr. J. Kaye (The Scripps Research Institute). Cells were cultured in ATCC-recommended media with 10% fetal calf serum. Cells were incubated in a controlled atmosphere at 37° C., with 5 or 7% CO2. For lactate dehydrogenase (LDH) release assays, adherent cells were harvested either by addition of 0.05% trypsin/EDTA or by scraping. The cells obtained were seeded onto 96-well microtiter plates (25,000 cells/well) and allowed to recover for 24-48 h. Cells were washed gently and media replaced with fresh media containing 5% fetal calf serum. […] Cytotoxicity was then determined by measuring lactate dehydrogenase (LDH) release from cells in culture. […] 100% Cytotoxicity was defined as the maximum amount of LDH released by dead cells as shown by trypan blue exclusion, or the highest amount of LDH detected upon lysis of cells by 0.9% Triton X-100. The IC50 values were determined by comparison of the raw duplicate data for concentration versus cytotoxicity (%) to non-linear regression analysis (Hill plot) using Graphpad v3.0 software for Macintosh.
The following cell lines were employed in this study: a human B-lymphocyte (WI-L2) described in Levy et al., Cancer 22, 517 (1968); a T-lymphocyte cell line (Jurkat E6.1) described in Weiss et al., J. Immunol. 133, 123 (1984); a vascular smooth muscle cell line (VSMC) and an abdominal aorta endothelial (HAEC) cell line described in Folkman et al., Proc. Natl. Acad. Sci. U.S.A. 76, 5217 (1979); a murine tissue macrophage (J774A.1) described in Ralph et al., J. Exp. Med. 143, 1528 (1976); and an alveolar macrophage cell line (MH-S) described in Mbawuike et al., J. Leukoc. Biol. 46, 119 (1989).
On the technique in general: LDH in the medium is a marker of cell lysis.

In series [2] the test system is Human aortic endothelial cells (HAEC). In words: LDH release cytotoxicity assay, HAEC. In kind it is cell-based. As to conditions: Endothelial cell, 18 h. The protocol:
as §1, with “h.” for “h. Cells were washed gently and media replaced with fresh media containing 5% fetal calf serum.”, “Macintosh. […]” for “Macintosh.”

The test system of series [3] is vascular smooth muscle cell line (VSMC). In words: LDH release cytotoxicity assay, VSMC. In kind it is cell-based. Particulars: Homo sapiens, 18 h. The protocol:
as §1, with “h.” for “h. Cells were washed gently and media replaced with fresh media containing 5% fetal calf serum.”, “Macintosh. […]” for “Macintosh.”

A further series has as its system neuronal cell lines. In words: Cytotoxicity towards neuronal cell lines (similar procedures). The class given is cell-based.
In the next series the test system is J774A.1 macrophages. In words: Modified Boyden chamber migration (chemotaxis) assay. Particulars: for recruitment (migration) of macrophages: 0-25 μM, 4 h. The class given is cell-based, murine. As to the method: Chemotaxis and invasion assays were performed using a modified Boyden chamber migration assay. Zwirner et al. (1998) Eur. J. Immunol. 28: 1570-77; Wilkinson (1988) Methods Enzymol. 162: 38-50. Assays were set up on MultiScreen-MIC plates (Millipore, Billerica, Mass., USA) with polyvinylpyrrolidone-free polycarbonate membranes (5 μm pore size). Cells (murine macrophage J774A.1) were washed and resuspended in serum-free DMEM containing 0.2% BSA at 1×10^6 cells/ml. Fifty microliters of cells were added to the upper wells and 150 μl of chemoattractant in DMEM/0.2% BSA were added to the lower wells of the microchamber. Incubation time was for 4 h at 37° C. in an 8% CO2 atmosphere. After swiping cells off the upper side of the membrane, cells on the lower side were visualized by either staining and phase contrast microscopy, or fluorescence. Cells that had adhered to the membrane were stained using a DiffQuik staining kit (Dade Behring, Newark, Del.). Each experiment was performed in triplicate and the numbers of migrating cells were counted in five fields at ×200. Cells harvested with PBS-EDTA for fluorescent labeling were washed two times with PBS, then resuspended in serum-free medium containing calcein AM (5 μM). Cells were incubated for 30 min (37° C., 5% CO2) with gentle intermittent mixing. Calcein-labeled cells were washed twice, and calcein fluorescence ([…]) was measured using a SPECTRAmax™ GEMINI dual-scanning microplate spectrofluorometer. Fluorescence measurements were compared to a standard curve, generated by dilution of cells in PBS/BSA in 100 μl, dispensed into 96-well plates. Fluorescence was quantified as described above.

For the next series, the system named is E-selectin. In words: Endothelial adhesion molecule expression ELISA, E-selectin. In kind it is cell-based, human. As to conditions: for upregulation of E-selectin expression relative to vehicle control: HAAE-1, 4 h, 25 μM in the presence of LDL (100 μg/mL protein), or lipoprotein alone; for selectin (E-selectin) expression: HAAE-1, not complexed with LDL. As to the method: (§2) Endothelial cell surface adhesion molecule expression was measured by ELISA, using anti-human CD54 (ICAM-1), CD106 (VCAM-1) and CD62E (E-Selectin) antibodies (Leinco Technologies, Inc., St. Louis, Mo.). The ELISA method was modified from previously described procedures.
(§3) Cells were then incubated with antibodies to VCAM-1, E-selectin, or ICAM-1 diluted 1:400 in PBS containing 5% FCS at 37° C. for 30 min. Wells were washed two times with PBS, then incubated with horseradish peroxidase (HRP)-conjugated goat anti-mouse IgG (Southern Biotechnology Associates, Birmingham, Ala., USA) in PBS/5% FCS at 37° C. for 30 min. The wells were washed four times with PBS, then incubated with H2O2/3,3′,5,5′-tetramethyl-benzidine peroxidase substrate (Pierce Chemical, Rockford, Ill., USA) for 30 min in the dark. The reaction was stopped by adding 25 μl of 8 N H2SO4, and the plates read on a microplate reader, blanking on wells stained with only secondary antibody. Each assay was performed in triplicate and the data are reported as the mean±SEM as a percentage of the expression level of the vehicle. To study the effect of cholesterol ozonation product 5a concentration (5-50 μM) on E-selectin expression, the assay was performed in an identical fashion as described above, with each point being the mean±SEM of at least duplicate measurements.
(In general: An ELISA detects its analyte on a solid surface through an enzyme-linked reagent.)

The subject of the next series is VCAM-1. In words: Endothelial adhesion molecule expression ELISA, VCAM-1. The class given is cell-based, human. Particulars: for integrin (VCAM-1) expression: HAAE-1, not complexed with LDL. The protocol:
as §2, §3

For a further series, the system named is THP-1 monocytes. In words: Monocyte morphology changes (differentiation into macrophages). The class given is cell-based, human. As to conditions: for THP-1 cell adherence (differentiation into macrophages): 12.5 or 25 μM, 7 days. The protocol: THP-1 monocytes in suspension were plated in 8-well chambered slides. […] Media containing appropriate treatment compounds was replaced after 4 days. […]

Setting [4] is: complexed with native LDL (100 μg/ml).

Read-outs that look alike come from different tables or passages of the source.

As a reminder, the IC50 is the midpoint of a concentration-inhibition curve. Turning to `CC(C)CCC[C@@H](C)[C@H]1CCC2C(CC=O)C([C@@]3(C)CC[C@H](O)CC3=O)CC[C@@]21C` (stereo partly drawn) [4a, 3β-Hydroxy-5-oxo-5,6-secocholestan-6-al], the IC50 in series [1] came to 10.9 ± 1.6 µM; in series [2] (HAEC, LDH release, 0-100 μM, read-out: IC50), 24.6 ± 3.2 µM; in series [3] (LDH release, 0-100 μM, read-out: IC50), 21.9 ± 2.2 µM. Further, the “cytotoxic towards neuronal cell lines” value with neuronal cell lines is reported as “cytotoxic”. Further, in the series with J774A.1 macrophages, the “recruitment (migration) of macrophages” value is on record as “stimulate dose-dependent recruitment of macrophages”. For the same compound, the migration of macrophages result in the series with J774A.1 macrophages (co-incubated with BSA) was “macrophage migration still occurs”; in the series on J774A.1 macrophages (setting [4]) it was “no significant migration”. For the same compound, the E-selectin levels in the series on E-selectin (HAAE-1, 1.25 μM complexed with LDL) is listed as 2 fold; in the series with E-selectin (HAAE-1, 50 μM complexed with LDL), “about 8 fold”. Also, the “upregulation of E-selectin expression relative to vehicle control” value in the series with E-selectin is recorded as “greater than 4 fold”. Also, the “selectin (E-selectin) expression” value with E-selectin is recorded as “no effects”. Also, the VCAM-1 levels entry in the series on VCAM-1 (HAAE-1, 25 μM in the presence of LDL, or lipoprotein alone) is “remain unchanged”. Also, the “integrin (VCAM-1) expression” value with VCAM-1 is recorded as “no effects”. Also, the “THP-1 cell adherence (differentiation into macrophages)” value in the series with THP-1 monocytes is “induced no cell adherence”.

For the compound `CC(C)CCC[C@@H](C)[C@H]1CCC2C3C(CC[C@@]21C)[C@@]1(C)CC[C@H](O)C[C@@]1(O)[C@@H]3C=O` (stereo partly drawn) [5a, 3β-Hydroxy-5β-hydroxy-B-norcholestane-6β-carboxaldehyde], the IC50 was found to be 17.7 ± 2.3 µM in series [1], 18.2 ± 1.9 µM in series [2] and 29.8 ± 2.8 µM in series [3]. Further, in the series with neuronal cell lines, the “cytotoxic towards neuronal cell lines” value is listed as “cytotoxic”. The “recruitment (migration) of macrophages” value in the series with J774A.1 macrophages is listed as “stimulate dose-dependent recruitment of macrophages”. The migration of macrophages entry in the series on J774A.1 macrophages (co-incubated with BSA) is “macrophage migration still occurs”; in the series on J774A.1 macrophages (setting [4]) it was “no significant migration”. Moreover, in the series on E-selectin, the “upregulation of E-selectin expression relative to vehicle control” value turned out to be 1.8 fold. In addition, the “selectin (E-selectin) expression” value with E-selectin was “no effects”. Moreover, the “integrin (VCAM-1) expression” value with VCAM-1 is listed as “no effects”. In addition, in the series on THP-1 monocytes, the “concentration that causes THP-1 cell differentiation” value turned out to be 25 µM. Further, the “THP-1 cell adherence (differentiation into macrophages)” value in the series with THP-1 monocytes is “began to adhere after 4 days”.
